The record followed here is PubChem BioAssay (NCI).

Test systems include MDA-N; HOP-18 NSCLC; DMS 114 small cell lung; SNB-78 CNS; KM20L2 colon; RXF-631 renal; XF 498 CNS.
Test in all cases: growth of human tumour cells (NCI), 48 h

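Where inhibition never reached the appropriate level, the endpoint shown equals the highest concentration tested. Otherwise, values were interpolated linearly from a five-concentration, 48-hour dose response in 96-well plates. GI50 is the concentration that inhibits growth by half. The concentration for full growth arrest is given as TGI.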

`C[C@]12CC[C@H](O)C[C@H]1CC[C@@H]1[C@@H]2CC[C@]2(C)[C@@H](C3=CC(=O)OC3)[C@@H](O)C[C@]12O` gave a TGI in the assay with MDA-N of 5.7 µM.

Turning to `O=C(O)c1cc(/C=C/c2cc(O)ccc2O)ccc1O`, in the assay with MDA-N, the TGI was greater than 10 µM.

As for `CC1C[C@H](C)CC(C(O)CC2CC(=O)N(Cc3ccccc3)C(=O)C2)C1O` (some centres not stated), the TGI with HOP-18 NSCLC, with DMS 114 small cell lung, in the assay with SNB-78 CNS and in the assay on KM20L2 colon was greater than 100 µM throughout.

On to `N/N=C(\C(=O)Nc1ccc(Cl)cc1Cl)C(c1cnc2ccccc2n1)[N+](=O)[O-]` (configuration not stated), for which, in the assay on MDA-N, the TGI is greater than 100 µM.

With `CNC(=O)OCc1c2ccncc2c(C)c2c1[nH]c1ccccc12`, the TGI in the assay on MDA-N is 1.73 µM.

On to `O=C(c1ccccc1)N1C2CCC1C(C(F)(F)F)=C2C(F)(F)F`, for which the TGI in the assay with RXF-631 renal, with HOP-18 NSCLC, with DMS 114 small cell lung, with SNB-78 CNS and with KM20L2 colon was greater than 100 µM throughout.

In the assay with MDA-N, `Cc1ccc(S(=O)(=O)N2CCSCCN(S(=O)(=O)c3ccc(C)cc3)CCN(S(=O)(=O)c3ccc(C)cc3)CC2)cc1` had a TGI greater than 100 µM.

For `COc1c(C(=O)c2ccc([N+](=O)[O-])cc2)cc(C(C)(C)C)cc1C(C)(C)C`, the TGI was 55.1 µM in the assay with XF 498 CNS; greater than 100 µM in the assay on HOP-18 NSCLC; 73.1 µM with DMS 114 small cell lung; greater than 100 µM in the assay on SNB-78 CNS; greater than 100 µM with KM20L2 colon.

Turning to `CC(=O)OC1CCCn2c1nc1c2C(=O)C(C)=C(N2CC2)C1=O` (configuration not stated), the TGI stood at 0.685 µM in the assay with XF 498 CNS; 1.11 µM with HOP-18 NSCLC; 2.38 µM with DMS 114 small cell lung; 2.88 µM in the assay with SNB-78 CNS; 1.2 µM with KM20L2 colon.

On to `CC1SC2=NC3=C(c4ccccc4C3=O)C(c3ccc(Cl)cc3)N2C1=O` (configuration not stated), for which the TGI in the assay with XF 498 CNS, in the assay with RXF-631 renal, in the assay with DMS 114 small cell lung and with KM20L2 colon was greater than 100 µM each time.

With `CNCc1cc(OC)ccc1-c1ccc(OC)c(OC)c1OC`, the TGI with XF 498 CNS, with RXF-631 renal, with HOP-18 NSCLC, in the assay with DMS 114 small cell lung, in the assay with SNB-78 CNS and in the assay with KM20L2 colon was greater than 100 µM each time.

Regarding `CC1=CC(=C(c2ccc(N)cc2)c2ccc(N)cc2)C=CC1=N`, the TGI in the assay on XF 498 CNS is 10.3 µM; with DMS 114 small cell lung it was 12.9 µM; in the assay with SNB-78 CNS, 9.89 µM; with MDA-N it was greater than 40.9 µM; with KM20L2 colon, 17.6 µM.

As for `CC1(C)CCC2=C(O1)c1ccccc1C(=O)C2=O`, in the assay on MDA-N, the TGI was determined as 0.363 µM.

Consider `CC1CC(=O)Nc2ccccc2N1C(=O)CN1CCC(CCCCN(C)C)CC1` (configuration not stated), for which the TGI with RXF-631 renal, in the assay with HOP-18 NSCLC, in the assay with DMS 114 small cell lung, in the assay with SNB-78 CNS and in the assay on KM20L2 colon was greater than 100 µM in each case.

With `CC(=O)c1ccc(OCC(O)CO)cc1` (configuration not stated), the TGI in the assay with RXF-631 renal, in the assay on HOP-18 NSCLC, in the assay with DMS 114 small cell lung, in the assay with SNB-78 CNS and in the assay on KM20L2 colon was greater than 100 µM each time.

With `CC[P+](C)(C)c1ccccc1`, the TGI with XF 498 CNS was greater than 100 µM; with HOP-18 NSCLC, 49.8 µM; in the assay on DMS 114 small cell lung, greater than 100 µM; in the assay with SNB-78 CNS, greater than 100 µM; with KM20L2 colon, greater than 100 µM.

Regarding `CCOC(=O)CSC(=O)NCCCl`, the TGI in the assay with DMS 114 small cell lung, with SNB-78 CNS and with KM20L2 colon was greater than 100 µM each time.

In the case of `CC1=NOC(=O)/C1=C/c1cccc2ccccc12`, the TGI with HOP-18 NSCLC, in the assay with DMS 114 small cell lung, in the assay with SNB-78 CNS and with KM20L2 colon was greater than 100 µM each time.

Consider `O=C1c2ccccc2C(=O)N1CCN(CCN1C(=O)c2ccccc2C1=O)Cn1cccn1`, for which the TGI in the assay on XF 498 CNS was greater than 100 µM; in the assay with RXF-631 renal, greater than 100 µM; in the assay on DMS 114 small cell lung, 38.3 µM; with SNB-78 CNS, greater than 100 µM; with KM20L2 colon, greater than 100 µM.

Take `NNC(=O)CNC(=O)c1ccc(Cl)cc1Cl`: the TGI with XF 498 CNS, in the assay with HOP-18 NSCLC, in the assay with DMS 114 small cell lung and in the assay on KM20L2 colon was greater than 100 µM throughout.

For `CC(=O)Nc1cc(N(CCOS(C)(=O)=O)CCOS(C)(=O)=O)ccc1N=O`, the TGI in the assay with XF 498 CNS, in the assay with DMS 114 small cell lung and in the assay on KM20L2 colon was greater than 100 µM each time.

For `CC(/C(=N\Nc1ccccc1)c1ccc(O)cc1)C1C(=O)Oc2ccccc21` (configuration not stated), the TGI in the assay with DMS 114 small cell lung and with KM20L2 colon was greater than 100 µM each time.

Consider `O=C(O)C[C@H]1CCCCC12CCOC2=O` (some centres not stated), for which the TGI with XF 498 CNS, with RXF-631 renal, in the assay with HOP-18 NSCLC, in the assay with DMS 114 small cell lung, in the assay on SNB-78 CNS and in the assay on KM20L2 colon was greater than 100 µM throughout.

Regarding `COC(=O)C(Cc1cc(OC)c(OC)c(OC)c1)c1ccc(OC)cc1` (configuration not stated), the TGI with RXF-631 renal, in the assay on HOP-18 NSCLC, in the assay on DMS 114 small cell lung, in the assay with SNB-78 CNS and in the assay with KM20L2 colon was greater than 100 µM throughout.

On to `N#Cc1c2c(c(N=P(c3ccccc3)(c3ccccc3)c3ccccc3)n3c1nc1ccccc13)CCCC2`, for which the TGI with RXF-631 renal was greater than 100 µM; in the assay with HOP-18 NSCLC, greater than 100 µM; in the assay on DMS 114 small cell lung, 59.4 µM; with SNB-78 CNS it was 97.3 µM; in the assay with KM20L2 colon, greater than 100 µM.

`NC(=O)c1ccc(NN=O)nc1` showed a TGI with MDA-N greater than 100 µM.

On to `Cc1cc2c(cc1C)[n+](=O)c(C(=O)C/C(=N/OCCCc1ccccc1)C(=O)Nc1cc(Cl)ccc1Cl)c(C)n2[O-]`, for which the TGI in the assay on XF 498 CNS, in the assay on RXF-631 renal, in the assay with HOP-18 NSCLC, in the assay with SNB-78 CNS and in the assay on KM20L2 colon was greater than 100 µM each time.

In the case of `CO[C@@H]1C=C[C@@]23c4cc5c(cc4C(=O)O[C@H]2CN(C)[C@H]3C1)OCO5`, the TGI in the assay on XF 498 CNS, in the assay with HOP-18 NSCLC, in the assay on DMS 114 small cell lung, with SNB-78 CNS and in the assay with KM20L2 colon was greater than 100 µM each time.

In the case of `COc1cc(OC)c(/C=C\c2ccnc3ccccc23)c(OC)c1`, in the assay on MDA-N, the TGI is 2.03 µM.

Consider `C=CC(C1=CC(=O)C(OC)=CC1=O)c1ccccc1` (configuration not stated), for which, in the assay with MDA-N, the TGI turned out to be 31.6 µM.

On to `Cc1ccc(NC(=O)C(=O)C(C#N)c2nc(-c3ccc(-c4ccccc4)cc3)cs2)c(C)c1` (configuration not stated), for which the TGI in the assay with HOP-18 NSCLC, in the assay with DMS 114 small cell lung, with SNB-78 CNS and in the assay on KM20L2 colon was greater than 100 µM in each case.

Consider `COC(=O)C(=O)C(C(=O)C(=O)Nc1nc2ccc(C)cc2s1)c1nc2ccc([N+](=O)[O-])cc2[nH]c1=O` (configuration not stated), for which the TGI in the assay on MDA-N was greater than 100 µM.

As to `CC1(C)C(O)C[C@@H](O)[C@@]2(C)C1CC[C@]1(C)C2C[C@@H](O)[C@@H]2C([C@@]3(C)CC[C@@H](C(C)(C)O)O3)CCC21C` (some centres not stated), the TGI was determined as 33.7 µM with XF 498 CNS; 31.1 µM in the assay on HOP-18 NSCLC; 29.1 µM in the assay with DMS 114 small cell lung; 43.8 µM with SNB-78 CNS; 31.2 µM with KM20L2 colon.

As for `CCc1c(Cc2[nH]c(Cc3[nH]c(C=O)c(C)c3CC)c(CC)c2CC)[nH]c(C=O)c1C`, the TGI with XF 498 CNS, in the assay with HOP-18 NSCLC, in the assay on DMS 114 small cell lung, with SNB-78 CNS and in the assay on KM20L2 colon was greater than 100 µM each time.

On to `CCCCCCCCCCCCCC(=O)OCC1OC(n2cc(F)c(=O)[nH]c2=O)C(NC(=O)OCc2ccccc2)C(OC(=O)CCCCCCCCCCCCC)C1O` (configuration not stated), for which the TGI in the assay with XF 498 CNS, with RXF-631 renal, in the assay with HOP-18 NSCLC, with DMS 114 small cell lung, in the assay with SNB-78 CNS and with KM20L2 colon was greater than 100 µM throughout.

With `COC(=O)/C=C(\C(=O)OC)c1c2c3c(cc(OC)c(OC)c3c3ccccc13)CCN2C`, the TGI in the assay with RXF-631 renal was greater than 100 µM; with HOP-18 NSCLC, greater than 100 µM; in the assay on DMS 114 small cell lung, 80.7 µM; with SNB-78 CNS, greater than 100 µM; with KM20L2 colon it was greater than 100 µM.

For the compound `COC(=O)C(CC(C)C)NC(=O)NC12CC3CC(CC(F)(C3)C1)C2` (configuration not stated), the TGI in the assay with RXF-631 renal, in the assay with DMS 114 small cell lung, with SNB-78 CNS and with KM20L2 colon was greater than 100 µM in each case.

In the case of `CCCCCCCCOCC(O)COC(=O)CCCCCCC` (configuration not stated), the TGI in the assay on RXF-631 renal, with HOP-18 NSCLC, with DMS 114 small cell lung and in the assay with KM20L2 colon was greater than 100 µM in each case.

`CN(C)CCNC(=O)C(C)(C)Oc1ccc(C(=O)c2ccc(Cl)cc2)cc1Cl`: in the assay on MDA-N, the GI50 is 6.48 µM and the TGI came out at 19.8 µM.

As for `N#Cc1ccccc1NC(=O)C(=O)c1c(O)c2ccccc2oc1=O`, the TGI in the assay on MDA-N is greater than 100 µM.

With `COc1ccc(C2CC(c3cc(C)ccc3O)=NC(N)=N2)cc1` (configuration not stated), the TGI in the assay with XF 498 CNS, in the assay with HOP-18 NSCLC, with DMS 114 small cell lung, with SNB-78 CNS and with KM20L2 colon was greater than 100 µM throughout.
